The term EC50 denotes the concentration that produces a half-maximal response. For orientation: AC50 means the midpoint of the concentration-response curve, whichever way the signal moves. By IC50 is commonly meant the midpoint of a concentration-inhibition curve.

Active and inactive are the calls of the source. For most assays here, no stated cut-off is given here; in the data, actives have a measured EC50 and inactives only a lower limit.

Data set [1] is described as follows: Luminescence Cell-Based Dose Response HTS to Identify Inhibitors of 5'UTR Stem-Loop Driven Prion Protein mRNA Translation in H4 Neuroglioblastoma Cells. [Related pubchem assays: 1827 (Project Summary), 1813 (Primary HTS)]. The class given is functional.
Data set [2] can be described thus: alpha-synuclein stem-loop luciferase translation blockers – H4 neuroglioma cells, luminescence, confirmation (AID 1988). The class given is functional, cell-based.
Data set [3] relates to BJ. The experiment in a line: BJ-TERT fibroblast viability loss – cell-based, RAS-independent, luminescence, dose response (AID 1933). To be noted: Homo sapiens. The class given is functional.
A short description of a further data set: cells. The class given is functional, cell-based.
The nature of data set [4]: luciferase reporter signal suppression in cells – H4 neuroglioma cells, luminescence, dose response (AID 1990). The class given is functional, cell-based. A general note: Reporter assays use an easily measured gene product as a stand-in for the process of interest.
A short description of data set [5]: luciferase reporter signal reduction – luminescence, H4-C neuroglioblastoma cells, dose response (AID 2458).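 Further: H4 neuroglioblastoma cells stably carrying a luciferase reporter gene fusion.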 Format: functional, cell-based.
Data set [6] is described as follows: alpha-synuclein stem-loop translation blockers – luminescence, H4 neuroglioblastoma cells, dose confirmation, confirmation (AID 2454).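 Further: H4 neuroglioblastoma cells carrying an alpha-synuclein 5'UTR luciferase reporter; potency for inhibition of the luciferase signal.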 Format: functional, cell-based.
The test system of data set [7] is BJ. The experiment in a line: BJ-TERT-LT-ST fibroblast viability loss – cell-based, RAS-independent, luminescence, dose response (AID 1935).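 Further: BJ fibroblasts immortalized with TERT plus LT and ST oncogenes.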 Format: functional. The note with it: Homo sapiens.
A short description of data set [8]: toxicity toward HEK293 cells – cell-based, dry powder samples, cytotoxicity control, dose response (AID 720567). The class given is functional.
Data set [9] in a line: DRD fibroblast viability loss – cell-based, non-viral oncogenic, luminescence, dose response (AID 1934). Format: functional. To be noted: Homo sapiens.
For data set [10], the system named is BJ. The experiment in a line: cells. The class given is functional, cell-based. The note with it: Homo sapiens.
The target in a further data set is Cytochrome P450 2C9 (Homo sapiens, UniProt P11712). To be noted: Potency.
Data set [11] has as its target T1, Rac GTPase-activating protein 1 (Homo sapiens, UniProt Q9H0H5).
T1 sequence (Q9H0H5 whole entry): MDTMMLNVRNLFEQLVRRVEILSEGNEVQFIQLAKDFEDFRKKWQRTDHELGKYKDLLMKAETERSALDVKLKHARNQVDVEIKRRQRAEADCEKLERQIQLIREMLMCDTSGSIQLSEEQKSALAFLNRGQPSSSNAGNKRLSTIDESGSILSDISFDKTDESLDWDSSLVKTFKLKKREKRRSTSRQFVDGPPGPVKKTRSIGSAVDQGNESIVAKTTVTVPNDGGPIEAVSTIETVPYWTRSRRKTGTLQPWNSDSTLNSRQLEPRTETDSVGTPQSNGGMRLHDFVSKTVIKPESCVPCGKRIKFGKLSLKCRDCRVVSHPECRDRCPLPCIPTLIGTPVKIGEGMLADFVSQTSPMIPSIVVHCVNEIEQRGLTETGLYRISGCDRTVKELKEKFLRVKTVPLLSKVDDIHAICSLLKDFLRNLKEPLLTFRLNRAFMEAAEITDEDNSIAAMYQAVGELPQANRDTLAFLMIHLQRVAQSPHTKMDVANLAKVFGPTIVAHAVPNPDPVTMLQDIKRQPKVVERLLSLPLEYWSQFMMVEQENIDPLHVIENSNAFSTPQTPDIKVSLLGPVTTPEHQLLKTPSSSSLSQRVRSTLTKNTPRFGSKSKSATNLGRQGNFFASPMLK
In words: blockers of MgcRacGAP-driven Rac1 GTP hydrolysis – biochemical, ADP Hunter fluorescence, primary and confirmatory, confirmation (AID 624330). The class given is functional.

For data set [12], the target named is Melanin-concentrating hormone receptor 1 (Homo sapiens, UniProt Q99705). The experiment in a line: Fluorescence-based counterscreen for antagonists of the G-protein coupled receptor 7 (GPR7): cell-based high throughput dose response assay to identify antagonists of the melanin-concentrating hormone receptor 1 (MCHR1). Format: functional. A general note: The purpose of a counterscreen is to sort out artefacts and off-target activity.

Data set [13] has as its target T2, Neuropeptides B/W receptor type 1 (Homo sapiens, UniProt P48145).
T2 sequence (P48145 whole entry): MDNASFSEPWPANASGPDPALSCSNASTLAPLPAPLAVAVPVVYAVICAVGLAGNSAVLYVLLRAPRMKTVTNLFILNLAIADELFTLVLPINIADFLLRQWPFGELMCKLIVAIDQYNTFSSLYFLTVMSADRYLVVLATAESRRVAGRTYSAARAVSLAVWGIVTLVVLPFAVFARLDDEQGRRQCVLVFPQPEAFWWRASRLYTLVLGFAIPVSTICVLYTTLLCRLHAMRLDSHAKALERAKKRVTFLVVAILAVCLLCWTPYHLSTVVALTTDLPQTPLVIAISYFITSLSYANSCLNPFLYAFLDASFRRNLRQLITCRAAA
In words: Fluorescence-based dose response cell-based high throughput screening assay to identify antagonists of the G-protein coupled receptor 7 (GPR7). [Related pubchem assays: 1952 (Screening assay (GPR7 antagonists).), 1880 (Summary AID.)]. Format: functional.

A further data set deals with T3, Insulin-degrading enzyme (Homo sapiens, UniProt P14735).
T3 sequence (P14735 whole entry): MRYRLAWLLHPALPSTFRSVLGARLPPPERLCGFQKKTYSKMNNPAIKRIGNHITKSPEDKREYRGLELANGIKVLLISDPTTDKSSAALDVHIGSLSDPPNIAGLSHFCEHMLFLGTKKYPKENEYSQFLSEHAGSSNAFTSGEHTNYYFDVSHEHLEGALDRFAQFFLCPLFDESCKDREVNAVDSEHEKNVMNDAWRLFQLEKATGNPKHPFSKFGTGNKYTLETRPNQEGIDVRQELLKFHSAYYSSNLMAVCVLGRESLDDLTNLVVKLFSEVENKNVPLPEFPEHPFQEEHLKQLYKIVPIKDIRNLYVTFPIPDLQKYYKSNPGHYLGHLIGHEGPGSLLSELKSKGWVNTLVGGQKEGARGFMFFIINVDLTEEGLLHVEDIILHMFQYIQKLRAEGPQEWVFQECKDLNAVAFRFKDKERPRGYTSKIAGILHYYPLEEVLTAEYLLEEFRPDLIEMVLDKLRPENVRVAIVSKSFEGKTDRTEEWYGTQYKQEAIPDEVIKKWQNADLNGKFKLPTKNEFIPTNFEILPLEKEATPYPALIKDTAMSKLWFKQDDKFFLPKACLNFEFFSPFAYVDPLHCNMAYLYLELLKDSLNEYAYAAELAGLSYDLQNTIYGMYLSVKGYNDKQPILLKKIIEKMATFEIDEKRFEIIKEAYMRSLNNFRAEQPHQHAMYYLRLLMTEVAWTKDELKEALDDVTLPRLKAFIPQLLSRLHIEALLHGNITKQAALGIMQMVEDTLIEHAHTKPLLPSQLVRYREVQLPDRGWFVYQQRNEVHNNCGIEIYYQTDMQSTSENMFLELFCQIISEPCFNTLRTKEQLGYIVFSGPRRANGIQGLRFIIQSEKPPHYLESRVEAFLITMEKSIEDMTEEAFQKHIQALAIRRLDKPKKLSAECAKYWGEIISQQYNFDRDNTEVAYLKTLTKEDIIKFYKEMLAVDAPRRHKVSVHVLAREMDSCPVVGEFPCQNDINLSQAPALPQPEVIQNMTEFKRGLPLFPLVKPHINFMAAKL
In words: Dose Response: Fluorescence polarization-based cell-based high throughput dose response assay for inhibitors of insulin-degrading enzyme (IDE). [Related pubchem assays: 434962 (Primary screen (IDE inhibitors in singlicate)), 449730 (Counterscreen (Cytotoxicity in triplicate)), 435028 (Confirmation (IDE inhibitors in triplicate)), 434984 (Summary …. The class given is functional.

The nature of data set [14]: Counterscreen for IDE inhibitors: Luminescence-based cell-based high throughput dose response assay to identify compounds that are cytotoxic to HEK cells. [Related pubchem assays: 434962 (Primary screen (IDE inhibitors in singlicate)), 449730 (Counterscreen (Cytotoxicity in triplicate)), 435028 (Confirmation (IDE inhibitors in triplicate)) …. The class given is functional. To be noted: HEK293.

For the next data set, the system named is Staphylococcus aureus. The experiment in a line: Inhibitors of Bacterial Quorum Sensing Structure Activity Relationship (SAR) Analysis: Dose Response Assay. [Related pubchem assays: 700, 527 ]. Format: functional, organism-based.
The target of the next data set is Cytochrome P450 3A4 (Homo sapiens, UniProt P08684).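 Further: CYP3A4 tested as one member of a cytochrome P450 panel screen.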
Sequence of Cytochrome P450 3A4 (P08684 whole entry): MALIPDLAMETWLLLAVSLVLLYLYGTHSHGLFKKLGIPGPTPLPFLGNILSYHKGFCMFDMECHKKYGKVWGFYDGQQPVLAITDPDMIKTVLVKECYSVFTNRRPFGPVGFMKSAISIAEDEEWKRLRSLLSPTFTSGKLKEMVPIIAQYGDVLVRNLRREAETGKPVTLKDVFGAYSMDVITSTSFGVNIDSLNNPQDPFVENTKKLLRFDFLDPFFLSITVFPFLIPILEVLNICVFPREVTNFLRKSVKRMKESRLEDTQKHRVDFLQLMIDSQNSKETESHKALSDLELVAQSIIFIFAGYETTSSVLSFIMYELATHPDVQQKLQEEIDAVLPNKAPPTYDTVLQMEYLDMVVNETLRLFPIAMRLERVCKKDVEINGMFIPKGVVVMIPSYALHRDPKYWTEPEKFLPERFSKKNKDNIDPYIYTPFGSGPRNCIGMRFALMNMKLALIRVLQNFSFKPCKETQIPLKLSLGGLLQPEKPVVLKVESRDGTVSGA

Sequence of Melanin-concentrating hormone receptor 1 (Q99705 whole entry): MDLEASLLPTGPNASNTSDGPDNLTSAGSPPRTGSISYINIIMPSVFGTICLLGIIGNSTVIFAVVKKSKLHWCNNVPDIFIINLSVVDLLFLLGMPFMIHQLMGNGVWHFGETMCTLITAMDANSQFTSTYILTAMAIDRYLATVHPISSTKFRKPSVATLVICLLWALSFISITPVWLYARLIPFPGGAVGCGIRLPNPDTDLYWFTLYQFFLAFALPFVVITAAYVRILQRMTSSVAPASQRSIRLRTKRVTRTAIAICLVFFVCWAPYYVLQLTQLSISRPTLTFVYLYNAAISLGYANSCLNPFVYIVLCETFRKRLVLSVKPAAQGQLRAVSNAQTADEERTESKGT
Sequence of Cytochrome P450 2C9 (P11712 whole entry): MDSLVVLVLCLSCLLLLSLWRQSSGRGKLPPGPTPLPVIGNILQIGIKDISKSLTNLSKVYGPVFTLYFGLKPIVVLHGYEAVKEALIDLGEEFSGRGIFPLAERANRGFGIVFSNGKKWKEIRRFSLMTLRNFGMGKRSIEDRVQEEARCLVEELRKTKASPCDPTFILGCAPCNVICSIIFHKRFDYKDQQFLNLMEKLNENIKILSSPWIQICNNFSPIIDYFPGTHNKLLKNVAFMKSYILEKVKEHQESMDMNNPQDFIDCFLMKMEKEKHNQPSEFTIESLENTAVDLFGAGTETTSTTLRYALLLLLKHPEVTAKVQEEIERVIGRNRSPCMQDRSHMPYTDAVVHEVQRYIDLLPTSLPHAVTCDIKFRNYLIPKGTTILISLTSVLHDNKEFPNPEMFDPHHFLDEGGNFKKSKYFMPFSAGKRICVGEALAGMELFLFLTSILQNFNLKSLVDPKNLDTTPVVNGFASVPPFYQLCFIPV

Take `CCOc1ccc(NC(=O)c2cc(OC)nc3ccccc23)cc1`: the concentration giving a half-maximal response (EC50) in data set [1] was 303 nM (active); in data set [2], < 100 nM (active); with BJ [3], 1110 nM (active); in “cells”, 1960 nM (active); in data set [4] it was 4730 nM (active); in data set [5], 965 nM (active). Further, the 50% effective concentration (EC50) in data set [6] was 1160 nM (active); in the data set on BJ [7], 1380 nM (inconclusive); in [9], 894 nM (active); in the data set with BJ [10], 69800 nM (inconclusive). Further, the AC50 in data set [8] was > 30000 nM (inactive).
In the case of `C/C=C/OC(=O)NC(c1ccccc1)[C@]1(C(C)=O)CCOC1=O` (some centres undefined), at Cytochrome P450 2C9, the AC50 was 794 nM (inconclusive).
On to `CN(C)c1ccc(Nc2ccc([N+](=O)[O-])cn2)cc1`, for which the results for the concentration for half-maximal inhibition (IC50) in data set [11], in data set [12] and in data set [13] were 36400 nM (active), > 43800 nM (not active) and > 43800 nM (not active), respectively.
For `Oc1sc(/C=N/c2ccc(F)cc2)c2ccccc12`, the IC50 on Insulin-degrading enzyme was > 55900 nM (not active); in data set [14], > 55700 nM (not active).
As for `Cc1cccc(Nc2ccccc2C(=O)O)c1C` [MEFENAMIC ACID], the concentration for half-maximal inhibition (IC50) in the data set with Staphylococcus aureus was 1340 nM (active). Moreover, the concentration at half-maximal activity (AC50) result on Cytochrome P450 3A4 is listed as “inconclusive”.
